Test results taken from patent US20230140972A1, “GLYCEROL GLUCOSIDE-BASED COMPOUND AND COMPOSITION COMPRISING SAME FOR ULTRAVIOLET LIGHT SHIELD OR ANTI-INFLAMMATION” (ATHENA CO., LTD., priority 2020, published 2023).
“And” between values parts separate entries of the source, which are not always exact repeats. Equal values may be shown once.

Test system: RAW264.7 cells
Assay: Cell viability measurement using MTT assay
Format: cell-based, mouse
Details: vs untreated group
Method: In order to evaluate a cell viability of the glycerol glucoside-based compound sample (EPS-S), an MTT assay was performed.
Specifically, subcultured RAW264.7 cells and HDF cells were aliquoted into a 96-well plate at 1×10^5, respectively, and cultured for 24 hours at 37° C. in an incubator containing 5% carbon dioxide, and then, a culture media was replaced with a serum-free media. Then, each sample was treated onto each cell by concentration. After culturing for 24 hours, an MTT solution was put into each well, reacted for 2 hours under light blocking, a supernatant was removed, a formed formazan was completely dissolved in DMSO, and an absorbance was measured at 540 nm with a microplate reader. In such a case, SDS was used as a positive control group. The test result value was calculated as in Equation 1 below and expressed as the cell viability compared to an untreated group, and was expressed as a mean±standard deviation.

CCCCCCCCCCCCOS(=O)(=O)[O-].[Na+] [SDS]
cell viability (24 h, 1 ppm): 99.95% and 99.95 ± 0.72%
cell viability (24 h, 10 ppm): 96.29% and 96.29 ± 0.16%
cell viability (24 h, 100 ppm): 7.75% and 7.75 ± 0.14%
cell viability (24 h, 1,000 ppm): 6.67% and 6.67 ± 0.16%
